Results reported in patent US11149040B2, “Fused triazole agonists of the APJ receptor” (AMGEN INC., priority 2017, dated 2021).

What follows are molecules tested against human APJ receptor (Homo sapiens (Human), UniProt P35414) (assay: [35S]GTPγS binding assay on membranes from CHO cells stably expressing human APJ receptor). Settings: read-out: Activity hAPJ SPA EC50 IP.
Type: biochemical
How it was run: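 Membranes from CHO cells stably expressing FLAG-tagged human APJ; assay buffer GDP, MgCl2 and NaCl levels optimised beforehand. Incubation 90 min at RT, imager read-out. EC50 from non-linear regression on means of several independent experiments.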

human APJ receptor, sequence (P35414 whole entry): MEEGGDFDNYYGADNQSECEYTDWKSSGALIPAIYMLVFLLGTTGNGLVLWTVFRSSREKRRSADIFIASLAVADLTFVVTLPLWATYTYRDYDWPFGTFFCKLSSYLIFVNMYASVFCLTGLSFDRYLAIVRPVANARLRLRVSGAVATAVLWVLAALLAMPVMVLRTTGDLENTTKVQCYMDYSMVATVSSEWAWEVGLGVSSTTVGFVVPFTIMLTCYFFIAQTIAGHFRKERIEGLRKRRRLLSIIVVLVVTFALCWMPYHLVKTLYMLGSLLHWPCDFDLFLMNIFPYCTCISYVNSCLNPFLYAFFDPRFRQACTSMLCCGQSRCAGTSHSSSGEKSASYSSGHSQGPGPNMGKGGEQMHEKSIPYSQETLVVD

SMILES	EC50
COC[C@@H]1COc2ncccc2-c2nnc(NS(=O)(=O)[C@@H](C)[C@@H](OC(C)C)c3ncc(C)cn3)n21 (single isomer, unassigned) [Example 41.0, (1S,2S)-N-((5R)-5-(methoxymethyl)-5,6-dihydropyrido[3,2-f][1,2,4]triazolo[4,3-d][1,4]oxazepin-3-yl)-1-(5-methyl-2-pyrimidinyl)-1-(2-propanyloxy)-2-propanesulfonamide or (1S,2S)-N-((5S)-5-(methoxymethyl)-5,6-dihydropyrido[3,2-f][1,2,4]triazolo[4,3-d][1,4]oxazepin-3-yl)-1-(5-methyl-2-pyrimidinyl)-1-(2-propanyloxy)-2-propanesulfonamide]	44 nM
COC[C@@H]1COc2ncccc2-c2nnc(NS(=O)(=O)[C@@H](C)[C@@H](OC(C)C)c3ncc(Cl)cn3)n21 (single isomer, unassigned) [Example 44.0, (1S,2S)-1-(5-chloro-2-pyrimidinyl)-N-((5R)-5-(methoxymethyl)-5,6-dihydropyrido[3,2-f][1,2,4]triazolo[4,3-d][1,4]oxazepin-3-yl)-1-(2-propanyloxy)-2-propanesulfonamide or (1S,2S)-1-(5-chloro-2-pyrimidinyl)-N-((5S)-5-(methoxymethyl)-5,6-dihydropyrido[3,2-f][1,2,4]triazolo[4,3-d][1,4]oxazepin-3-yl)-1-(2-propanyloxy)-2-propanesulfonamide]	15 nM
COC[C@@H]1COc2ncccc2-c2nnc(NS(=O)(=O)[C@@H](C)[C@@H](OC(C)C)c3ncc(Cl)cn3)n21 (single isomer, unassigned) [Example 45.0, (1S,2S)-1-(5-chloro-2-pyrimidinyl)-N-((5R)-5-(methoxymethyl)-5,6-dihydropyrido[3,2-f][1,2,4]triazolo[4,3-d][1,4]oxazepin-3-yl)-1-(2-propanyloxy)-2-propanesulfonamide or (1S,2S)-1-(5-chloro-2-pyrimidinyl)-N-((5S)-5-(methoxymethyl)-5,6-dihydropyrido[3,2-f][1,2,4]triazolo[4,3-d][1,4]oxazepin-3-yl)-1-(2-propanyloxy)-2-propanesulfonamide]	160 nM
Cc1cnc([C@H](OC(C)C)[C@H](C)S(=O)(=O)Nc2nnc3n2-c2ccccc2/C=C\CC3)nc1 (single isomer, unassigned) [Example 47.0, (P) (1S,2S)-N-((Z)-4,5-dihydrobenzo[g][1,2,4]triazolo[4,3-a]azocin-1-yl)-1-isopropoxy-1-(5-methylpyrimidin-2-yl)propane-2-sulfonamide or (M) (1S,2S)-N-((Z)-4,5-dihydrobenzo[g][1,2,4]triazolo[4,3-a]azocin-1-yl)-1-isopropoxy-1-(5-methylpyrimidin-2-yl)propane-2-sulfonamide]	> 12500 nM
Cc1cnc([C@H](OC(C)C)[C@H](C)S(=O)(=O)Nc2nnc3n2-c2c(F)cccc2/C=C\CC3)nc1 (single isomer, unassigned) [Example 48.0, (P)(1S,2S)-N-((Z)-11-Fluoro-4,5-dihydrobenzo[g][1,2,4]triazolo[4,3-a]azocin-1-yl)-1-isopropoxy-1-(5-methylpyrimidin-2-yl)propane-2-sulfonamide or (M)(1S,2S)-N-((Z)-11-fluoro-4,5-dihydrobenzo[g][1,2,4]triazolo[4,3-a]azocin-1-yl)-1-isopropoxy-1-(5-methylpyrimidin-2-yl)propane-2-sulfonamide]	> 12500 nM
Cc1cnc([C@H](OC(C)C)[C@H](C)S(=O)(=O)Nc2nnc3n2-c2c(F)cccc2/C=C\C[C@@H]3C)nc1 (single isomer, unassigned) [Example 50.0]	12 nM
Cc1cnc([C@H](OC(C)C)[C@H](C)S(=O)(=O)Nc2nnc3n2-c2c(F)cccc2/C=C\C[C@@H]3C)nc1 (single isomer, unassigned) [Example 51.0]	8.6 nM
Cc1cnc([C@H](OC(C)C)[C@H](C)S(=O)(=O)Nc2nnc3n2-c2c(F)cccc2/C=C\C[C@@H]3C)nc1 (single isomer, unassigned) [Example 52.0]	> 12500 nM
Cc1cnc([C@H](OC(C)C)[C@H](C)S(=O)(=O)Nc2nnc3n2-c2c(F)cccc2/C=C\C[C@@H]3C)nc1 (single isomer, unassigned) [Example 53.0]	220 nM
CO[C@H](c1ncc(C)cn1)[C@H](C)S(=O)(=O)Nc1nnc2n1[C@H](COC(C)C)COc1ncccc1-2 (single isomer, unassigned) [Example 63.0, (1R,2S)-N-((R)-5-(isopropoxymethyl)-5,6-dihydropyrido[3,2-f][1,2,4]triazolo[4,3-d][1,4]oxazepin-3-yl)-1-methoxy-1-(5-methylpyrimidin-2-yl)propane-2-sulfonamide or (1R,2S)-N-((S)-5-(isopropoxymethyl)-5,6-dihydropyrido[3,2-f][1,2,4]triazolo[4,3-d][1,4]oxazepin-3-yl)-1-methoxy-1-(5-methylpyrimidin-2-yl)propane-2-sulfonamide]	800 nM
CO[C@H](c1ncc(C)cn1)[C@H](C)S(=O)(=O)Nc1nnc2n1[C@H](COC(C)C)COc1ncccc1-2 (single isomer, unassigned) [Example 64.0, (1R,2S)-N-((R)-5-(isopropoxymethyl)-5,6-dihydropyrido[3,2-f][1,2,4]triazolo[4,3-d][1,4]oxazepin-3-yl)-1-methoxy-1-(5-methylpyrimidin-2-yl)propane-2-sulfonamide or (1R,2S)-N-((S)-5-(isopropoxymethyl)-5,6-dihydropyrido[3,2-f][1,2,4]triazolo[4,3-d][1,4]oxazepin-3-yl)-1-methoxy-1-(5-methylpyrimidin-2-yl)propane-2-sulfonamide]	640 nM
COC[C@@H]1COc2cnccc2-c2nnc(NS(=O)(=O)[C@@H](C)[C@@H](OC(C)C)c3ncc(C)cn3)n21 (single isomer, unassigned) [Example 66.0, (1S,2S)-N-((5R)-5-(methoxymethyl)-5,6-dihydropyrido[4,3-f][1,2,4]triazolo[4,3-d][1,4]oxazepin-3-yl)-1-(5-methyl-2-pyrimidinyl)-1-(2-propanyloxy)-2-propanesulfonamide or (1S,2S)-N-((5S)-5-(methoxymethyl)-5,6-dihydropyrido[4,3-f][1,2,4]triazolo[4,3-d][1,4]oxazepin-3-yl)-1-(5-methyl-2-pyrimidinyl)-1-(2-propanyloxy)-2-propanesulfonamide]	760 nM
COC[C@@H]1COc2ncccc2-c2nnc(NS(=O)(=O)[C@@H](C)[C@H](OC(C)C)c3ncc(C)cn3)n21 (single isomer, unassigned) [Example 67.0, (1R,2S)-N-((5R)-5-(methoxymethyl)-5,6-dihydropyrido[3,2-f][1,2,4]triazolo[4,3-d][1,4]oxazepin-3-yl)-1-(5-methyl-2-pyrimidinyl)-1-(2-propanyloxy)-2-propanesulfonamide or (1R,2S)-N-((5S)-5-(methoxymethyl)-5,6-dihydropyrido[3,2-f][1,2,4]triazolo[4,3-d][1,4]oxazepin-3-yl)-1-(5-methyl-2-pyrimidinyl)-1-(2-propanyloxy)-2-propanesulfonamide]	250 nM
